One series has as its system guinea pig trachea. As to the kind of experiment: relaxation of the spontaneous tonus of the isolated guinea pig trachea (tracheal spiral) in vitro. To be noted: for relaxation of the spontaneous tonus of the guinea pig trachea in vitro: guinea pig trachea / tracheal spiral, result in words. On the procedure:
The new compounds of Formulas III and IV are also considered part of the present invention since they are useful as intermediates for the production of the substances of Formula I. Some of the substances of Formulas III and IV also have biological utility in addition to their utility as intermediates. […] It is 13.2 times as potent as theophylline in relaxing the spontaneous tonus of the isolated guinea pig tracheal spiral. […] In both instances, the drug was administered orally.

Series [1] concerns passive cutaneous anaphylaxis reaction (PCA). As to the kind of experiment: passive cutaneous anaphylaxis reaction (PCA) in the rat. Format: in vivo. To be noted: for ED50 / PCA Response, percent inhibition at the dose specified: rat; for ED50: read-out: PCA Response, ED 50; for antiallergic activity: rat PCA, result in words. As to the method: Twelve days after injection, the serum is collected and the antibody titer is determined. The sera which contain sufficient antibody to cause a 10 mm. spot in the dorsal skin of the rat in the PCA test after a 10-fold dilution are pooled. […] The selected reaginic anti-sera are stored frozen until use. For carrying out the test, groups of 5 to 10 male Sprague-Dawley (Carworth Farms) rats, each rat weighing 100-150 g., are used. Forty-eight hours prior to the test, the animals are passively sensitized by intradermal injection of 0.1 ml. of the above diluted antiserum at various locations on the shaved skin of the back. A dilution of antiserum is used so that a spot following challenge of 20-25 mm. in diameter is obtained. Challenge consists of an intravenous injection of 25 mg./kg. of body weight of egg albumin and a like amount of Evan's blue dye in saline. […] A latent period of 48 hrs. is allowed before the animals are treated with the test drug administered by either intraperitoneal or intravenous injection or orally by gavage. Challenge as described above is given 15 min. subsequent to treatment with the test drug. The response to the antigen challenge in the sensitized localities on the skin is an increased capillary permeability and leakage of the blue dye into the area surrounding the sensitized site. The PCA response is scored by measuring the mean spot diameter on the excised and reversed skin 20-30 min. after challenge. In each experiment a group of control animals receiving no drug is employed. The percent inhibition of the PCA is calculated by determining the mean diameters of the spots in the control and treated animals and computing the difference between the squares of the mean diameters of the control animals and the treated animals and expressing this difference as a percentage of the square of the mean diameter of the control animals. Results are expressed as percent inhibition. […] In other modifications, various time intervals are allowed between drug treatment and challenge to ascertain the duration of drug effect.

The nature of a further series: in vivo. To be noted: po, rat, treated orally, read-out: approximate LD50.

Read-outs that look alike come from different tables or passages of the source.

In the case of `Cc1cc(C)c2sc3ncc(-c4nnn[nH]4)c(=O)n3c2c1` [Example 25, 7,9-Dimethyl-3-(1H-tetrazol-5-yl)-4H-pyrimido[2,1-b]benzothiazol-4-one], in the series on guinea pig trachea, the “relaxation of the spontaneous tonus of the guinea pig trachea in vitro” value (“relaxation” below) is “cause relaxation”.

As to `Cl.N=c1c(-c2nnn[nH]2)cnc2sc3ccccc3n12` [Example 23, 3-(1H-Tetrazol-5-yl)-4H-pyrimido[2,1-b]-benzothiazol-4-imine Hydrochloride], the ED50 in series [1] (po, p.o.) is 2.9 mg/kg. Moreover, the “relaxation” value in the series on guinea pig trachea is “cause relaxation”. For the compound `Cc1csc(NC=C(C#N)C#N)n1` [Example 5, 2-[[(4-methylthiazol-2-yl)amino]methylene]propanedinitrile], the “relaxation” value in the series on guinea pig trachea is “substantial tracheal relaxant action”. Also, the “potency relative to theophylline in relaxing the spontaneous tonus of the isolated guinea pig tracheal spiral” value in the series on guinea pig trachea (isolated guinea pig tracheal spiral) was 13.2 times as potent as theophylline.

`Cc1csc2ncc(-c3nnn[nH]3)c(=O)n12` [Example 28, 3-Methyl-6-(1H-tetrazol-5-yl)-5H thiazolo[3,2-a]pyrimidine-5-one]: the “PCA Response, percent inhibition at the dose specified” value (“PCA Response, percent inhibition” for short) in series [1] (25 mg/kg, p.o.) amounted to 39%. For the same compound, in the series with guinea pig trachea, the “relaxation” value is on record as “cause relaxation”. In the case of `N=c1c(-c2nnn[nH]2)cnc2sccn12` [Example 22, 6-(1H-Tetrazol-5-yl)-5H-thiazole[3,2-a]-pyrimidine-5-imine], the “PCA Response, percent inhibition” value in series [1] (10 mg/kg, p.o.) is given as 22.4%. As for `COc1ccc2c(c1)sc1ncc(-c3nnn[nH]3)c(=O)n12` [Example 31, 8-Methoxy-3-(1H-tetrazol-5-yl)-4H-pyrimido-[2,1-b]benzothiazol-4-one], in series [1] (po, p.o.), the ED50 was determined as 1.88 mg/kg. Further, the “relaxation” value in the series on guinea pig trachea is recorded as “cause relaxation”. Regarding `N#CC(=CNc1nc2ccccc2s1)c1nnn[nH]1` [Example 14, N-[2-Cyano-2-(1H-tetrazol-5-yl)ethenyl]-benzothiazol-2-amine], in series [1] (po, p.o.), the ED50 worked out at 32 mg/kg. For the same compound, the antiallergic activity result in series [1] was “antiallergic activity similar to those substances of Formula I”. As to `Cc1csc(NC=C(C#N)c2nnn[nH]2)n1` [Example 17, 3-[(4-Methylthiazol-2-yl)amino]-2-(1H-tetrazol-5-yl)-2-propenenitrile], the antiallergic activity result in series [1] is reported as “antiallergic activity similar to those substances of Formula I”. Moreover, the “PCA Response, percent inhibition” value in series [1] (25 mg/kg, p.o.) was found to be 36.7%. Take `Cc1cc2sc3ncc(-c4nnn[nH]4)c(=O)n3c2cc1C` [Example 32, 7,8-Dimethyl-3-(1H-tetrazol-5-yl)-4H-pyrimido[2,1-b]benzothiazol-4-one]: the “PCA Response, percent inhibition” value in series [1] (25 mg/kg, p.o.) was determined as 34.9%. In the series on guinea pig trachea, the “relaxation” value is listed as “cause relaxation”. Take `N=c1c(-c2nnn[nH]2)cnc2[nH]cnn12` [Example 15, 3,7-Dihydro-6-(1H-tetrazol-5-yl)-s-triazolo-[1,5-a]pyrimidin-7-imine]: the “PCA Response, percent inhibition” value in series [1] (10 mg/kg, p.o.) worked out at 36.1%. Further, the “relaxation” value in the series on guinea pig trachea was “inactive”. As for `O=c1c(-c2nnn[nH]2)cnc2sccn12` [Example 33, 6-(1H-Tetrazol-5-yl)-5H-thiazolo[3,2-a]-pyrimidin-5-one], the “PCA Response, percent inhibition” value in series [1] (10 mg/kg, p.o.) amounted to 57%. With `O=c1c(-c2nnn[nH]2)cnc2sc3ccccc3n12` [Example 24, 3-(1H-Tetrazol-5-yl)-4H-pyrimido[2,1-b]-benzothiazol-4-one], the ED50 was determined as 0.0049 mg/kg in series [1] (iv, i.v.) and 0.064 mg/kg in series [1] (po, p.o.). Further, the “relaxation” value in the series on guinea pig trachea is given as “cause relaxation”. Besides, in the series “in vivo”, the 50% lethal dose (LD50) fell in the range of 2000 to 5000 mg/kg.

The values above are taken from patent US4223031A, “Azolopyrimidinones” (priority 1978, dated 1980).
